Assay results from publication PMC7932521, “2-aminobenzimidazoles for leishmaniasis: From initial hit discovery to in vivo profiling” (PLoS Neglected Tropical Diseases, 2021).
Like-named read-outs stand apart in the source and are kept apart here.

What was measured:
[1] = Parallel artificial membrane permeability assay (PAMPA); format: in vitro ADME
How it was run: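 Compounds at 10μM final in PBS pH 6.5 (donor) against PBS pH 7.4 (acceptor) across lipid-coated membranes, incubated 5 h at 37°C. Donor, acceptor and T0 levels measured by LC-MS/MS to derive effective permeability (Pe); n = 3.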

Kv11.1 (hERG) = target: T1, Kv11.1 (hERG) (Homo sapiens, UniProt Q12809); test: hERG thallium influx assay; format: cell-based; conditions: KCl, read-out: Bioprofiling 6pt Thallium Influx Antag Kv11.1 (hERG) CHO Human IC50
T1 construct: host or cells: T-REx-CHO, doxycycline-induced
T1 sequence (Q12809 whole entry): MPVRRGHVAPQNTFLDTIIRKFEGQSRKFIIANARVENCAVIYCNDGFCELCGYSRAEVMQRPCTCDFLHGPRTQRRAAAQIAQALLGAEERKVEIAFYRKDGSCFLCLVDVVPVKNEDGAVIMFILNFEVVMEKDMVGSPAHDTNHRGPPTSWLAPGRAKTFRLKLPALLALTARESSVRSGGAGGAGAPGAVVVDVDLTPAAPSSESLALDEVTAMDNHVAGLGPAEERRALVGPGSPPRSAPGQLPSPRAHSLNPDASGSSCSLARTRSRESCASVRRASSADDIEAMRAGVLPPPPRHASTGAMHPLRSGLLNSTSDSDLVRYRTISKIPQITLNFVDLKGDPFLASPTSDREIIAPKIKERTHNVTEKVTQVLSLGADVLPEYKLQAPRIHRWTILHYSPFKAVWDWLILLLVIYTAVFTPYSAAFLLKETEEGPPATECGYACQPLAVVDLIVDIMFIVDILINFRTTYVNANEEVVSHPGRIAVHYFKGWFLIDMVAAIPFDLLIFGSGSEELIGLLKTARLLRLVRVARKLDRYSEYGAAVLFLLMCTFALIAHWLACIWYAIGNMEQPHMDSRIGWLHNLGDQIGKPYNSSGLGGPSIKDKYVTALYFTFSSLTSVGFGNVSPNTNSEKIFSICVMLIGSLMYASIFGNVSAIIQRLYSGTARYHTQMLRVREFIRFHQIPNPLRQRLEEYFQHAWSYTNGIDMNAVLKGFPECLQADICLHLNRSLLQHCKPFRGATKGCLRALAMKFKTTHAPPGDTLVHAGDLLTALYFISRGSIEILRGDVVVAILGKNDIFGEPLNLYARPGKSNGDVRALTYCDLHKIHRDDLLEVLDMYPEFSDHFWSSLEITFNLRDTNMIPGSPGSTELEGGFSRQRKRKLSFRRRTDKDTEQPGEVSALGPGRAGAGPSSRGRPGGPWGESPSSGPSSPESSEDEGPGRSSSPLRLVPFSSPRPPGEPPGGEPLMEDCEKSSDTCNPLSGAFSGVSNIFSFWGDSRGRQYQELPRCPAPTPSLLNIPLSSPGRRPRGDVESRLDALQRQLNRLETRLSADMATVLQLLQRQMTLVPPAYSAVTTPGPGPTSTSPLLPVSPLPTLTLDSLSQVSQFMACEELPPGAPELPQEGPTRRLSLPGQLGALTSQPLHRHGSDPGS
Description: This was adapted from the literature method;[28] briefly, hERG functional activity was measured in an inducible hERG T-RExTM-CHO Cell line (ThermoFisher #K1237) using thallium influx as a surrogate indicator of potassium ion channel activity. Thallium enhances the fluorescent signal of BTC-AM dye (ThermoFisher #B6791). 384 well plates were seeded at 15,000 cells/well with doxycycline hyclate, included to induce expression of the hERG channel, and grown for 48 hours. Media was removed and cells were loaded with 4 μM dye for 90 mins in a low potassium buffer, dye was then removed and compound added to the cells in a high potassium buffer in a 6 point 1:3 dilution dose series (maximum final concentration of 30 μM). After 30 mins of compound incubation, channel activity was recorded upon addition of thallium buffer using a Tetra plate reader. The slope of the kinetic read was used to calculate channel activity.

5-HT2B = target: T2, 5-HT2B (Homo sapiens, UniProt P41595); test: Bioprofiling 6pt Ag 5-HT2B CHO; format: cell-based; conditions: agonist readout
T2 construct: expressed in transfected cells; host or cells: CHO
T2 sequence (P41595 whole entry): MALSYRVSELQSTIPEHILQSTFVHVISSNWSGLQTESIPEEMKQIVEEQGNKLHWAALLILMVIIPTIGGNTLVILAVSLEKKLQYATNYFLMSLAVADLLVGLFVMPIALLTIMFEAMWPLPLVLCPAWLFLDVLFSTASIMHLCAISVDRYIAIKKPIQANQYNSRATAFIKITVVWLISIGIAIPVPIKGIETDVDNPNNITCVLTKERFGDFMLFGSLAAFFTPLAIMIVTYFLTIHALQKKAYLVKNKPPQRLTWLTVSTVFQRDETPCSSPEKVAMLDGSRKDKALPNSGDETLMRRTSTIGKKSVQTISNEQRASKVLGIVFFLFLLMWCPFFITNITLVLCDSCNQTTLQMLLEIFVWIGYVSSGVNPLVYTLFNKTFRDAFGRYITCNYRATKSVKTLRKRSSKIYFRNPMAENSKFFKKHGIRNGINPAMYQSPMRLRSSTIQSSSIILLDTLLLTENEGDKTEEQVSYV
Description: (§1) The compounds were evaluated across a panel of 20 liability targets (37 functional assays) which included functional cell-based GPCRs and ion channels in both agonist and antagonist readout, measuring calcium flux and biochemical functional assays for nuclear hormone receptors and phosphodiesterases using TR-FRET format, in a 6 point 1:3 dilution dose series (maximum final concentration of 10 μM).

Alpha1A = target: T3, Alpha1A (Homo sapiens, UniProt P35348); test: Bioprofiling 6pt Ag Alpha1A CHO; format: cell-based; conditions: agonist readout
T3 construct: expressed in transfected cells; host or cells: CHO
T3 sequence (P35348 1-466): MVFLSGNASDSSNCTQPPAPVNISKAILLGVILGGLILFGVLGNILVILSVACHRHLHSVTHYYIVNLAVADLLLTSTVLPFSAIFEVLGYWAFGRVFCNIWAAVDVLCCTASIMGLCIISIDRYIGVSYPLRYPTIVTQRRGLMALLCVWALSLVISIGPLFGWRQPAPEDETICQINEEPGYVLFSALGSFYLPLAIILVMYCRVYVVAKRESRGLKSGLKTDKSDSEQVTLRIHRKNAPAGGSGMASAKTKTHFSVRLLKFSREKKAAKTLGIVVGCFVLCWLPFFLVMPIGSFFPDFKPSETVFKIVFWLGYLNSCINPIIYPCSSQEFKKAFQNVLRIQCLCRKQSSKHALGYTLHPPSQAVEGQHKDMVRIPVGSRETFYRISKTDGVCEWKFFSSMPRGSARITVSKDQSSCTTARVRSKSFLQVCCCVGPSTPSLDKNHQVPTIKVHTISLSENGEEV
Description: as §1

B2 = target: T4, B2 (Homo sapiens, UniProt P30411); test: Bioprofiling 6pt Ag B2 CHO; format: cell-based; conditions: agonist readout
T4 construct: expressed in transfected cells; host or cells: CHO
T4 sequence (P30411 1-391): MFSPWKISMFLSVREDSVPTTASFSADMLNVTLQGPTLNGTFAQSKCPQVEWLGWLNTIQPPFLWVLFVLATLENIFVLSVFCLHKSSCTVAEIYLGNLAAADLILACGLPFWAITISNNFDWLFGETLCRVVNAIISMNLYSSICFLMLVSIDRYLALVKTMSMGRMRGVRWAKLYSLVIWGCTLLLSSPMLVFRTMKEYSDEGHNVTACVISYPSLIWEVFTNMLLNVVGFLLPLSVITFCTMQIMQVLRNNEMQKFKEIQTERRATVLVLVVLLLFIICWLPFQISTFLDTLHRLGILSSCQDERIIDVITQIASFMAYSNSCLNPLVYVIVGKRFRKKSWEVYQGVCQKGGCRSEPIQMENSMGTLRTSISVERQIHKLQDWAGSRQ
Description: as §1

M2 [2] = target: T5, M2 (Homo sapiens, UniProt P08172); test: Bioprofiling 6pt Ag M2 CHO; format: cell-based; conditions: agonist readout
T5 construct: expressed in transfected cells; host or cells: CHO
T5 sequence (P08172 1-466): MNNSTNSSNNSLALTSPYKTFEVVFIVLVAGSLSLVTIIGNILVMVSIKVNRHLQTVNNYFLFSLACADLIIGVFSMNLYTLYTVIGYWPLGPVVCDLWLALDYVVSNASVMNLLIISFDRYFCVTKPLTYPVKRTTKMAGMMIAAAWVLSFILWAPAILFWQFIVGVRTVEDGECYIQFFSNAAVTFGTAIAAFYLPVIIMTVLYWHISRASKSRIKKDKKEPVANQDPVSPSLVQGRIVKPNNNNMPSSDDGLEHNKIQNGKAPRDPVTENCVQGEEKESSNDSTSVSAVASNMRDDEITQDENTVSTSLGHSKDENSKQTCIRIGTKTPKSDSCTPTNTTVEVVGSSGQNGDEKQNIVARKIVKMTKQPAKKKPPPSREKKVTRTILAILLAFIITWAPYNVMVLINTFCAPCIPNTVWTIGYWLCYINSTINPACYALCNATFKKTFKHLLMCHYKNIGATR
Description: as §1

A1 = target: T6, A1 (Homo sapiens, UniProt P30542); test: Bioprofiling 6pt Antag A1 CHO; format: cell-based; conditions: antagonist readout vs N6-Cyclopentyladenosine (CPA)
T6 construct: expressed in transfected cells; host or cells: CHO
T6 sequence (P30542 1-326): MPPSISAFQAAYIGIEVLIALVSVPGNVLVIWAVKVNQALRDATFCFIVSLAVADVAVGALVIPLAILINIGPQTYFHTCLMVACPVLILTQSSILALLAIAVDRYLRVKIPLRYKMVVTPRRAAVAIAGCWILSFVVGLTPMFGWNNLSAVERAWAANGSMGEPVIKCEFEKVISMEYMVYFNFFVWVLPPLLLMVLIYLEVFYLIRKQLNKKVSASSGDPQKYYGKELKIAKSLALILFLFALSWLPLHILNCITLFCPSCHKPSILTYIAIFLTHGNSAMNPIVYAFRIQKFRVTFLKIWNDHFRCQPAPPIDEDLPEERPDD
Description: as §1

M2 [3] = target: T5, M2; test: Bioprofiling 6pt Antag M2 CHO; format: cell-based; conditions: antagonist readout vs Carbachol
Description: as §1

[4] = PAMPA, S1 Data, read-out: PAMPA Pe
[5] = passive permeability, read-out: PAMPA

| SMILES | Papp at 5 h, 10 μM [1, 4] [×10⁻⁶ cm/s] | IC50 (Kv11.1 (hERG)) [µM] | EC50 (5-HT2B) [µM] | EC50 (Alpha1A) [µM] | EC50 (B2) [µM] | EC50 (M2 [2]) [µM] | IC50 (A1) [µM] | IC50 (M2 [3]) [µM] | Papp at 5 h, 10 μM [1, 5] [×10⁻⁶ cm/s] |
| --- | --- | --- | --- | --- | --- | --- | --- | --- | --- |
| COc1ccc(C(=O)Nc2nc3ccc(C#N)cc3n2CC(F)(F)F)cn1 [Compound 43, O=C(c1ccc(OC)nc1)Nc2nc(ccc(C#N)c3)c3n2CC(F)(F)F] | 14.7 | > 30 | > 10 | > 10 | > 10 | > 10 | > 10 | > 10 | – |
| N#Cc1ccc2nc(NC(=O)c3ccc(C(F)(F)F)nc3)n(CC(F)(F)F)c2c1 [Compound 45, O=C(c1ccc(C(F)(F)F)nc1)Nc2nc(ccc(C#N)c3)c3n2CC(F)(F)F] | 5.43 | > 30 | > 10 | > 10 | > 10 | > 10 | > 10 | > 10 | – |
| N#Cc1ccc2nc(NC(=O)c3ccnc(C(F)(F)F)c3)n(CC(F)(F)F)c2c1 [Compound 44, O=C(c1ccnc(C(F)(F)F)c1)Nc2nc(ccc(C#N)c3)c3n2CC(F)(F)F] | 2.32 | > 30 | > 10 | > 10 | > 10 | > 10 | > 10 | > 10 | 2.3 |
| Cn1nccc1C(=O)Nc1nc2ccc(C#N)cc2n1CC(C)(C)C [Compound 29, O=C(Nc1n(CC(C)(C)C)c(c2n1)cc(C#N)cc2)c3n(C)ncc3] | 8.71 | > 30 | > 10 | > 10 | > 10 | > 10 | > 10 | > 10 | 4.7 |
| Cn1nccc1C(=O)Nc1nc2ccc(C#N)cc2n1CC(F)(F)F [Compound 30, O=C(c1ccnn1C)Nc2nc(ccc(C#N)c3)c3n2CC(F)(F)F] | 27.9 | > 30 | > 10 | > 10 | > 10 | > 10 | > 10 | > 10 | 7.9 |
| Cn1nc(C(F)(F)F)cc1C(=O)Nc1nc2ccc(C#N)cc2n1CC(F)(F)F [Compound 39, O=C(c1cc(C(F)(F)F)nn1C)Nc2nc(ccc(C#N)c3)c3n2CC(F)(F)F] | 2.4 | > 30 | > 10 | > 10 | > 10 | > 10 | > 10 | > 10 | 10 |
